Experiments:
HIV [1] = test: Nested case-control analysis: TFV level and protection from HIV acquisition (Partners PrEP Study); assay type: in vivo
Experimental: (§1) It was hypothesized that TFV concentrations in urine, measured via an immunoassay, would correlate to those in plasma, the gold standard for short-term PrEP adherence in clinical trials, and associated with protection from HIV. To test this hypothesis, TFV levels were measured in stored urine samples collected from a randomly sampled cohort of HIV-negative men and women from the active PrEP arms in the Partners PrEP Study using enzyme-linked immunosorbent assay (ELISA) (lower limit of quantification [LLOQ] of 1000 ng/mL). Date-matched plasma TFV concentrations were measured using liquid chromatography-tandem mass spectrometry (LC-MS/MS) with an LLOQ of 0.31 ng/mL. Using the same cohort and a purposive sample of all HIV seroconverters on PrEP, a case-cohort analysis was conducted to assess the association between recent urine TFV level ≥1500 ng/mL, a threshold previously shown to accurately predict recent PrEP dosing, and protection from HIV. Weighted Cox proportional hazard models were used and adjusted for age, sex, and sexual behavior.
To assess the association between urine TFV concentrations ≥1,500 ng/mL and protection from HIV acquisition, a nested case-control analysis was conducted. Case samples collected on the date of the first evidence of HIV infection (i.e., first positive test for HIV-1 RNA) were matched with control samples collected at the same study visit month. […]

[2] = Plasma TFV concentration by LC-MS/MS, Partners PrEP Study cohort; assay type: in vivo, human; settings: Partners PrEP cohort on TDF or TDF/FTC; IQR=1.6-103.0 ng/mL
Experimental: as §1

HIV [3] = settings: daily doses; subjects at high risk through sexual transmission and drug use; cited from earlier work
HIV [4] = test: Urine TFV levels by immunoassay and HIV seroconversion (iPrEx-OLE); assay type: in vivo
Experimental: PrEP was provided to 1,085 men who have sex with men (MSM) and 140 transwomen (Grant et al., Lancet Infect Dis, 14: 820-829 (2014)). Urine was collected every 12 weeks and dried blood spots (DBS) were prepared 4 and 8 weeks after PrEP initiation, and then every 12 weeks. DBS assays for TFV-diphosphate (TFV-DP) and FTC-triphosphate (FTC-TP) were analyzed at all visits for participants who seroconverted in the iPrEx open-label extension (iPrEx-OLE) study and in a random subset of those who remained HIV-negative (Grant et al., supra). Hair samples for TFV and FTC were collected every 12 weeks for all who provided opt-in consent and analyzed among seroconverters and a random subset of those who remained HIV-negative (Gandhi et al., Lancet HIV, 3: e521-e528 (2016)). Participants who qualified for the correlation analysis required sample availability from all three biomatrices (urine, DBS, hair) at one or more visits over the duration of iPrEx-OLE (median 72 weeks). Additional urine samples from seroconverters (n=10) were included in the specific analysis looking at the association between urine TFV levels and seroconversion. All individuals in the study provided informed consent, including for sample storage and further testing, and the institutional review board from each study site approved the study.
The upper limit of quantification for the immunoassay was 50,000 ng/mL. Using previously described and validated LC-MS/MS-based methods, TFV-DP and FTC-TP concentration were measured in DBS (Zheng et al., J Pharm Biomed Anal, 122: 16-20 (2016)), and FTC and TFV concentrations were measured in hair (Liu et al., PLoS One, 9: e83736 (2014)).
For the seroconversion analysis, urine TFV concentrations via the immunoassay were compared using Kruskal-Wallis' test among individuals at the seroconversion visit; prior to the seroconversion visit; and those who remained HIV-negative. Receiver operating curves (ROC) were analyzed to identify two urine TFV cut-points and compared with the outcome of future HIV seroconversion. […] The sensitivity and specificity of the urine assay at an undetectable urine TFV level (<1,000 ng/mL) was compared with two levels of inadequate adherence defined by TFV-DP concentrations in DBS: the limit of quantification (<3.5 fmol/punch) and very low adherence (<350 fmol/punch, estimated average weekly adherence of <2 tablets/week) (Grant et al., Lancet Infect Dis, 14: 820-829 (2014)); and Anderson et al., Antimicrob Agents Chemother, 62: e01710-e01717 (2018)). The lower limit of detection for the urine assay (1,000 ng/mL) was selected as the optimal single cut-off based on analysis of ROC curves and prior data examining LC-MS/MS-based methods to quantify TFV levels in urine (Lalley-Chareczko et al., J Acquir Immune Defic Syndr, 79: 173-178 (2018)).

[5] = Urine TFV concentration by ELISA, Partners PrEP Study cohort; assay type: in vivo, human; settings: Partners PrEP cohort on TDF or TDF/FTC; IQR=500-90,000 ng/mL
Experimental: as §1

C[C@H](Cn1cnc2c(N)ncnc21)OCP(=O)(O)O [TFV, tenofovir]
reduction in HIV risk associated with plasma TFV >40 ng/mL (HIV [1]; plasma TFV >40 ng/mL by LC-MS/MS, 95% CI=54-96%): 87% | % HIV risk reduction (95% CI) (HIV [1]; urine TFV ≥1500 ng/mL by immunoassay, unadjusted, TDF/FTC or TDF-only PrEP): 73% (36 to 89%) | median TFV concentration in plasma via LC-MS/MS [2]: 65.4 ng/mL | reduced incidence of HIV (HIV [3]): 48.9% | urinary TFV level at seroconversion (HIV [4]; at seroconversion (n=9), P<0.001, undetectable = <1,000 ng/mL): undetectable | association of decreasing strata of urine TFV levels with HIV seroconversion (HIV [4]; samples prior to seroconversion visit, P=0.03): associated with future HIV seroconversion | median urinary TFV level (HIV [4]; those who eventually seroconverted (n=11), interquartile range 1,000-12,500): 5,500 ng/mL | median urinary TFV level (HIV [4]; those who remained HIV negative (n=105), interquartile range 1,000-45,000): 15,000 ng/mL | median TFV concentration in urine via ELISA [5]: 37,500 ng/mL

Reference: patent publication US20220372171A1, “ANTIBODY DIRECTED AGAINST TENOFOVIR AND DERIVATIVES THEREOF” (priority 2019, published 2022)
